Where a name gives a salt, the structure may show the parent alone.
Columns and labels:
[1] = in vitro cumulative release from low dose imatinib stents (PLGA 85/15 matrix, base and cap); format: physicochemical; settings: about 160 micrograms per 16 mm stent, average of three stents
Protocol: The imatinib free-base (slow release) and the imatinib meslate salt (Gleevec) were loaded into holes in stents in a polymer matrix of PLGA 85/15 with a PLGA 85/15 base and cap and the release from the stents was recorded in FIG. 1. A solvent such as NMP or anisol was used to deposit the drug/polymer compositions and then evaporated. The releases shown in FIG. 1 are the average of three stents each. Methods and systems for depositing polymers and drugs within holes in stents are described further in WO 2004/026182 which is incorporated herein by reference.
The dosage for this example was about 160 micrograms normalized for a 16 mm long stent. The free base and salt forms where then combined in the ratios of 86:14, 66:34, and 46:54 and it was shown that the rate of the release (solubility of the drug) is proportional to the percentage of free base or salt. Thus, the selection of a percentage of free base and salt can be used to provide a selected drug release kinetic.
The addition of the free-base form allows the release to be extended past 48 hours to about 72 hours for a formulation of 46% free base and to about 120 hours for a formulation of about 66% free base. While a formulation with 86% free base continues to release imatinib in-vitro at 168 hours and beyond.

[2] = effect of counter ions on in vitro release of imatinib from stents; format: physicochemical; settings: total drug load 150 μg to 200 μg; PLA-PLC base and cap, PLGA matrix
Protocol: FIG. 4 illustrates the effect of several counter ions on the in vitro release of a drug, in this example imatinib. Total drug load was 150 μg to 200 μg. PLA-PLC was used in the base and cap while the matrix containing the drug was PLGA as in Examples 1 and 2.

rate of release from stents (FIG. 1) [1]	time until release is essentially complete / extent of release duration (FIG. 1) [1]	rate of release from stents (FIG. 1) ([1]; listed as salt)	SMILES	cumulative in vitro release (FIG. 4) [2]
slowest release			Cc1ccc(NC(=O)c2ccc(CN3CCN(C)CC3)cc2)cc1Nc1nccc(-c2cccnc2)n1 [free base, imatinib]	
	about 48 hours	fastest release	Cc1ccc(NC(=O)c2ccc(CN3CCN(C)CC3)cc2)cc1Nc1nccc(-c2cccnc2)n1 [imatinib mesylate]	significantly higher cumulative release, relatively quickly, than imatinib salicylate
			Cc1ccc(NC(=O)c2ccc(CN3CCN(C)CC3)cc2)cc1Nc1nccc(-c2cccnc2)n1.O=C(O)c1ccccc1O [imatinib salicylate]	significantly higher that that of imatinib

From patent publication US8673336B2, “Composition, system, and method for modulating release kinetics in implantable drug delivery devices by modifying drug solubility” (Innovational Holdings LLC, priority 2005, dated 2014)
